Reference: ChEMBL document CHEMBL4219032, “Triple Reuptake Inhibitors as Potential Therapeutics for Depression and Other Disorders: Design Paradigm and Developmental Challenges” (J Med Chem, 2018)

Key:
[1] = target: T1, Sodium-dependent dopamine transporter (Homo sapiens, UniProt Q01959); experiment: Inhibition of DAT (unknown origin)-mediated uptake
[2] = target: T2, Sodium-dependent serotonin transporter (Homo sapiens, UniProt P31645); experiment: Inhibition of SERT (unknown origin)-mediated uptake
T2 sequence (P31645 whole entry): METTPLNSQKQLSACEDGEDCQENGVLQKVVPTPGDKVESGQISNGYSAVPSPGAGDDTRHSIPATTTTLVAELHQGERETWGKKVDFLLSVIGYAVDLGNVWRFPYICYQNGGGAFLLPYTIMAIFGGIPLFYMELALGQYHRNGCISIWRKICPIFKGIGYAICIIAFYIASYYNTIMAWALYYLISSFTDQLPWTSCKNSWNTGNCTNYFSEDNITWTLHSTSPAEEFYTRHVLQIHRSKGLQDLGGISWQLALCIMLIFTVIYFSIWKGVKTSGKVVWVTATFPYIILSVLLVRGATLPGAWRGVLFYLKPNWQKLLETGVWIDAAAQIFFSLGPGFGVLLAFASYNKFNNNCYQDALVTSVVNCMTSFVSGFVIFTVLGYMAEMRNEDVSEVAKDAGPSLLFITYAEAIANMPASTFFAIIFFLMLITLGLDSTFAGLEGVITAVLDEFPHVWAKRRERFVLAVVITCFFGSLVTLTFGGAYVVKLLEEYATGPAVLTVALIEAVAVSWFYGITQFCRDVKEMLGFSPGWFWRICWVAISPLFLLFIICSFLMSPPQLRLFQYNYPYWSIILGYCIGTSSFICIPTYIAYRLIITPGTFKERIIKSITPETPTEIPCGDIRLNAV

[3] = target: T1, Sodium-dependent dopamine transporter; experiment: Binding affinity to human DAT
[4] = target: T2, Sodium-dependent serotonin transporter; experiment: Binding affinity to human SERT
[5] = target: T3, Sodium-dependent noradrenaline transporter (Homo sapiens, UniProt P23975); experiment: Binding affinity to human NET
T3 sequence (P23975 whole entry): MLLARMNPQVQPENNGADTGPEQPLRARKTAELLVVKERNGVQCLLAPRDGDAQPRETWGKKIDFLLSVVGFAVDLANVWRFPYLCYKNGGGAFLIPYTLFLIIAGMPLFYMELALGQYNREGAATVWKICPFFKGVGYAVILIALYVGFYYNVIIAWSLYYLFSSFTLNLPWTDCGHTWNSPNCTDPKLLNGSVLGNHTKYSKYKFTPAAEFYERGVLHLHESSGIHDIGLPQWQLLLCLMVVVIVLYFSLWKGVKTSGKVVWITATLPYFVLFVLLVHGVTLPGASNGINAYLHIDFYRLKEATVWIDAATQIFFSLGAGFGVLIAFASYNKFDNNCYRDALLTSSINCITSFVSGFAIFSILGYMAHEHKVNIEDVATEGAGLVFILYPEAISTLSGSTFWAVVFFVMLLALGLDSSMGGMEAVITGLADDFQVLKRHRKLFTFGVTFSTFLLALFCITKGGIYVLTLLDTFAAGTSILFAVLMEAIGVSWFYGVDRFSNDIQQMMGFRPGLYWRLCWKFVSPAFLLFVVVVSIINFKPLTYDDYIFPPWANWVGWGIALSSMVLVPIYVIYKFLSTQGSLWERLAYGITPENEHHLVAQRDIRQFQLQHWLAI

[6] = target: T1, Sodium-dependent dopamine transporter
Description: Binding affinity to DAT (unknown origin)

[7] = test system: Homo sapiens; experiment: In vivo receptor occupancy at DAT in human at 8 to 16 mg measured 24 hrs post dose by [11C]-PE2I based PET imaging analysis; type: functional
[8] = test system: Homo sapiens; experiment: In vivo receptor occupancy at SERT in human at 8 to 16 mg after 24 hrs post dose by [11C]-DASB based PET imaging analysis; type: functional
[9] = Tmax in human at 8 to 36 mg by LC-MS/MS analysis; type: ADME, organism-based; conditions: in vivo
[10] = Elimination half life in human at 8 to 36 mg by LC-MS/MS analysis; type: ADME, organism-based; conditions: in vivo, read-out: beta t1/2
[11] = Half life in human at 4 to 8 mg; type: ADME, organism-based; conditions: in vivo
[12] = target: T3, Sodium-dependent noradrenaline transporter
Description: Binding affinity to NET (unknown origin)

[13] = target: T2, Sodium-dependent serotonin transporter; experiment: biochemical; type: cell-based, HEK293
Description: Binding affinity to human SERT expressed in HEK293 cells after 60 mins in presence of [3H]imipramine by liquid scintillation counting

[14] = target: T3, Sodium-dependent noradrenaline transporter; experiment: Binding affinity to human NET expressed in HEK293 cells after 60 mins in presence of [3H]imipramine by liquid scintillation counting; type: cell-based
[15] = target: T1, Sodium-dependent dopamine transporter; experiment: Binding affinity to human DAT expressed in HEK293 cells after 60 mins in presence of […] by liquid scintillation counting; type: cell-based
[16] = target: T2, Sodium-dependent serotonin transporter
Description: Binding affinity to SERT (unknown origin)

[17] = target: Sodium-dependent serotonin transporter (Rattus norvegicus, UniProt P31652); experiment: Inhibition of rat brain SERT assessed as reduction of [3H]5-HT re-uptake preincubated for 30 mins followed by [3H]5-HT addition measured after 5 mins by scintillation counting
Sequence of Sodium-dependent serotonin transporter (Rattus norvegicus, UniProt P31652) (P31652 whole entry): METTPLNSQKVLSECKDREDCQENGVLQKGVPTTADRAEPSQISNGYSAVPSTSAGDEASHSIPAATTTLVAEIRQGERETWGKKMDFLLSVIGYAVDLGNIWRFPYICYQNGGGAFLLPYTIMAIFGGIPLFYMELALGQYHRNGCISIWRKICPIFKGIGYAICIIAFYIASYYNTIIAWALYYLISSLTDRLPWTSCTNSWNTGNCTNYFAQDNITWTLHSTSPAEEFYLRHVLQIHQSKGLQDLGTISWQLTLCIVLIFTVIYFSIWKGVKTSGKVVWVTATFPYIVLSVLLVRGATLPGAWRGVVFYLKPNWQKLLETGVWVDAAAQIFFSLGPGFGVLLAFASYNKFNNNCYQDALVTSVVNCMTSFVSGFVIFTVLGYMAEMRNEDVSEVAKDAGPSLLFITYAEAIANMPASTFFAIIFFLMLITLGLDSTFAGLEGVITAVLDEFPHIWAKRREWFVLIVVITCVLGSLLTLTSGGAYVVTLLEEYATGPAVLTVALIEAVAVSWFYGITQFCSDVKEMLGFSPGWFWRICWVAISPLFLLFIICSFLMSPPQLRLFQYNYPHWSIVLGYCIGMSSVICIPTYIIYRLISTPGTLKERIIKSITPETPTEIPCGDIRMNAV

[18] = target: Norepinephrine transporter (Rattus norvegicus, UniProt Q9WTR4); experiment: Inhibition of rat brain NET assessed as reduction of [3H]-NE re-uptake preincubated for 30 mins followed by [3H]-NE addition measured after 5 mins by scintillation counting
Sequence of Norepinephrine transporter (Q9WTR4 whole entry): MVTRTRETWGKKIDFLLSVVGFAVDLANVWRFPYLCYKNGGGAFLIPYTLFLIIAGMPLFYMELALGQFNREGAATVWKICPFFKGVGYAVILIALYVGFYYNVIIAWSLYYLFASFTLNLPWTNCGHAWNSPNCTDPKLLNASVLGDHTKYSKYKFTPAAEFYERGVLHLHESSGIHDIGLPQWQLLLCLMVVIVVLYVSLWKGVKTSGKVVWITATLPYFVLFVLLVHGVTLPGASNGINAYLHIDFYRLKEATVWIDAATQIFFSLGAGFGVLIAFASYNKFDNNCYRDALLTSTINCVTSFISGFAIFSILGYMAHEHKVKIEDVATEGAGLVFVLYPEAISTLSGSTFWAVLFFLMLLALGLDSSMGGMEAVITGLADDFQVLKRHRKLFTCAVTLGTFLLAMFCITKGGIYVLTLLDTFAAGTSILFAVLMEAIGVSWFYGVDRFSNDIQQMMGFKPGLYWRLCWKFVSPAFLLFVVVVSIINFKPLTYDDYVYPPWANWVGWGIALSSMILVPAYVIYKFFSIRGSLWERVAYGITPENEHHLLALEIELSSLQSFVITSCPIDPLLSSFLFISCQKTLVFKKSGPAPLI

[19] = target: Sodium-dependent dopamine transporter (Rattus norvegicus, UniProt P23977); experiment: Inhibition of rat brain DAT assessed as reduction of [3H]-DA re-uptake preincubated for 30 mins followed by [3H]-DA addition measured after 5 mins by scintillation counting
Sequence of Sodium-dependent dopamine transporter (Rattus norvegicus, UniProt P23977) (P23977 whole entry): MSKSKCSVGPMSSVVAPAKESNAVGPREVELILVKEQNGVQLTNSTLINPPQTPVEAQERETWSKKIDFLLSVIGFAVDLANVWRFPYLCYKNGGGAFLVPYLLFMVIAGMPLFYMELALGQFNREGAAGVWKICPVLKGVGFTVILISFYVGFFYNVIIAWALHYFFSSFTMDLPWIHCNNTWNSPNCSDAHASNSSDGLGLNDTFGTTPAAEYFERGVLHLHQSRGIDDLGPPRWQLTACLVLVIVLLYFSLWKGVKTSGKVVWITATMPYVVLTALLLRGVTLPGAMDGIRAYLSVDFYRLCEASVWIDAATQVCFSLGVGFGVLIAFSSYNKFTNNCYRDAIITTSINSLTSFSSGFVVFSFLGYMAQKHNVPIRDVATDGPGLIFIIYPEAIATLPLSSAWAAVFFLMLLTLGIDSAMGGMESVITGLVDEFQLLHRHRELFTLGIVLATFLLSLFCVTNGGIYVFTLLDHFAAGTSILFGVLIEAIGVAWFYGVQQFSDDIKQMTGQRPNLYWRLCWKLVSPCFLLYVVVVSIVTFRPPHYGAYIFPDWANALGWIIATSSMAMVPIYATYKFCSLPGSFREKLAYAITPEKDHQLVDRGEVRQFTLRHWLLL

[20] = Half life in human brain; type: ADME, tissue-based
[21] = test system: Homo sapiens; experiment: In vivo receptor occupancy at DAT in iv dosed human measured up to 15 mins by PET analysis; type: functional
[22] = test system: Mus musculus; experiment: In vivo receptor occupancy at NET in mouse at 0.3 mg/kg; type: functional
[23] = test system: Mus musculus; experiment: In vivo receptor occupancy at SERT in mouse at 0.3 mg/kg; type: functional
[24] = test system: Mus musculus; experiment: In vivo receptor occupancy at DAT in mouse at 0.3 mg/kg; type: functional
[25] = test system: Homo sapiens; experiment: In vivo receptor occupancy at SERT in human at 3 mg, po administered on day 1 measured on day 14 by [11C]-DASB -based PET imaging analysis; type: functional
[26] = test system: Homo sapiens; experiment: In vivo receptor occupancy at SERT in human at 0.5 mg, po administered on day 1 measured on day 14 by [11C]-DASB -based PET imaging analysis; type: functional
[27] = test system: Homo sapiens; experiment: In vivo receptor occupancy at DAT in human at 3 mg, po administered on day 1 measured on day 14 by […]-based PET imaging analysis; type: functional
[28] = Tmax in human at 0.025 to 5 mg, po by LC-MS/MS analysis; type: ADME, organism-based; conditions: in vivo
[29] = Half life in human at 0.025 to 5 mg, po by LC-MS/MS analysis; type: ADME, organism-based; conditions: in vivo
[30] = test system: Mus musculus; experiment: Antidepressant activity in TST mouse model assessed as reduction in immobility time at 0.3 mg/kg, po relative to control; type: functional

T1 sequence (Q01959 whole entry): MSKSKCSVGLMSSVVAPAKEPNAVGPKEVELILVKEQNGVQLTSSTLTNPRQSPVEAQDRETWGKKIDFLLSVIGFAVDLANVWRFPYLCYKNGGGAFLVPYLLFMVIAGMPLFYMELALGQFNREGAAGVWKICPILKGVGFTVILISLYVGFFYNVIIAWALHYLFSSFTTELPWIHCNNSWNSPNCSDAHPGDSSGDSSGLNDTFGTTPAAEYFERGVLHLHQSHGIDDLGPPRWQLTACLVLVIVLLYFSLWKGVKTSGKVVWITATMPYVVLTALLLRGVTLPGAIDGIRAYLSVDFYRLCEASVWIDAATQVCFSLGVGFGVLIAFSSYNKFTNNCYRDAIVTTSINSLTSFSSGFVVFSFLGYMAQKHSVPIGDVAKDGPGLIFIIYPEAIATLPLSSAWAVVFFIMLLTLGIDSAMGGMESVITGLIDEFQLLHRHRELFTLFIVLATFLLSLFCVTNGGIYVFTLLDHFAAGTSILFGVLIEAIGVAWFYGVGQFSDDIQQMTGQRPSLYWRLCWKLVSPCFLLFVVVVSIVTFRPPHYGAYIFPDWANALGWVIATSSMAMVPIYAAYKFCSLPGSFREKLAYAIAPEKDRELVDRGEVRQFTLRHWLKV

## CN(C)C[C@]1(c2ccc3ccccc3c2)CC[C@](C)(O)CC1
[1]
  IC50: 167 nM
[2]
  IC50: 7 nM

## Clc1ccc([C@@H]2CCNC[C@@]23CCOC3)cc1Cl
[3]
  Ki: 39.8 nM
[4]
  Ki: 5.01 nM
[5]
  Ki: 79.4 nM

## N[C@H]1CC[C@H](c2ccc(Cl)c(Cl)c2)c2ccccc21
[6]
  IC50: 2 nM
[7]
  Occ: 33 - 49%
[8]
  Occ: 2 - 14%
[9]
  Tmax: 10 to 12 h
[10]
  half-life: 44 to 77 h
[11]
  half-life: 47 h
[12]
  IC50: 4 nM

## CNC[C@@H](c1ccc2ccccc2c1)[C@@H](O)c1ccccc1
[13]
  Kd: 210 nM
[14]
  Kd: 42 nM
[15]
  Kd: 200 nM

## COC[C@H]1CN[C@H]2CC[C@]1(c1ccc(Cl)c(Cl)c1)C2
[3]
  Ki: 1.51 nM
[4]
  Ki: 1.26 nM
[5]
  Ki: 0.0794 nM

## Cc1cc2cc(OC3C[C@H]4CC[C@@H](C3)N4)ccc2oc1=O (some centres not stated)
[6]
  IC50: 150 nM
[16]
  IC50: 0.72 nM
[12]
  IC50: 10 nM

## C[C@]1(O)CC[C@@](CN)(c2ccc(Cl)c(Cl)c2)CC1
[1]
  IC50: 2600 nM
[2]
  IC50: > 10000 nM

## CC1CCCN(C(=O)CSC[C@H]2CN(C)CC[C@@H]2c2ccc(Cl)cc2)C1 (some centres not stated)
[17]
  IC50: 15 nM
[18]
  IC50: 84 nM
[19]
  IC50: 120 nM

## Clc1ccc(C2CCNCC23CCOCC3)cc1Cl (racemic)
[3]
  Ki: 20 nM
[4]
  Ki: 0.631 nM
[5]
  Ki: 10 nM

## CN(C)C[C@H](c1ccc2ccccc2c1)[C@H](O)C1CCCCC1 (racemic)
[13]
  Ki: 6 nM
[14]
  Ki: 10 nM
[15]
  Ki: 53 nM

## CNC[C@H](c1ccc2ccccc2c1)[C@H](O)c1ccccc1 (racemic)
[13]
  Ki: 12 nM
[14]
  Ki: 1.2 nM
[15]
  Ki: 43 nM

## COC(=O)[C@H](c1ccccc1)[C@H]1CCCCN1 (racemic) [DEXMETHYLPHENIDATE]
[20]
  half-life: 1.5 h
[21]
  Occ: 60%

## Clc1ccc(C2CCNCC23CCOCC3)cc1Cl (stereo in doubt; 171)
[3]
  Ki: 31.6 nM
[4]
  Ki: 1.26 nM
[5]
  Ki: 63.1 nM

## Clc1ccc(C2CCNCC23CCOCC3)cc1Cl (stereo in doubt; 172)
[3]
  Ki: 12.6 nM
[4]
  Ki: 0.316 nM
[5]
  Ki: 3.98 nM

## Cc1ccc(C23CNCC2C3)cc1 (configuration not stated) [BICIFADINE]
[6]
  IC50: 910 nM
[16]
  IC50: 117 nM
[12]
  IC50: 55 nM

## CC(NC(C)(C)C)C(=O)c1cccc(Cl)c1 (configuration not stated) [BUPROPION]
[21]
  Occ: <30%

## COC(=O)[C@H]1[C@@H](OC(=O)c2ccccc2)C[C@@H]2CC[C@H]1N2C [COCAINE]
[20]
  half-life: 0.333 h

## COC[C@@]12CNCC[C@]1(c1ccc(Cl)c(Cl)c1)C2 [GSK1360707]
[6]
  IC50: 8 nM
[16]
  IC50: 9.2 nM
[12]
  IC50: 8.1 nM

## CN1Cc2cc(-c3ccc(N)nn3)ccc2[C@H](c2ccc3ccccc3c2)C1 [LIAFENSINE]
[22]
  Occ: 76%
[23]
  Occ: 86%
[24]
  Occ: 28%
[25]
  Occ: 82%
[26]
  Occ: 19%
[27]
  Occ: 19%
[28]
  Tmax: 5 to 7.2 h
[29]
  half-life: 34 to 57 h
[30]
  inhibition in vivo at 0.3 mg/kg: 77%
[16]
  IC50: 1.1 nM
[12]
  IC50: 8.8 nM
